Data published in PMC4945466 (Journal of medicinal chemistry, 2016).
Like-named read-outs stand apart in the source and are kept apart here.

What was measured:
[1] = molecular target: recombinant HIV-1 IN (integrase strand transfer) (Human immunodeficiency virus type 1 group M subtype B, UniProt P04585); assay: INST biochemical assay
[2] = tested on: HIV-1 IIIB in CEM-SS cells; assay: microbe, parasite or virus in culture; format: cell-based; conditions: for Antiviral Screening (10 μM) CPE reduction %: HIV-1 IIIB in CEM-SS cells, versus viral control
[3] = tested on: CEM-SS cells; assay: Cell viability / cytotoxicity in cytoprotection assay; format: cell-based
[4] = as above; format: cell-based; conditions: human
[5] = read-out: INST IC50, mean ± SD, at least three independent experiments

1-(Hydroxy)-1,2,3,6-tetrahydro-2,6-dioxo-4-(phenylamino)pyrimidine-5-carboxamide [Compound 49]
IC50 [1, 5]: > 100 µM

3-(Benzyloxy)-6-(ethylamino)-N-(4-fluorobenzyl)-N-methyl-2,4-dioxo-1,2,3,4-tetrahydropyrimidine-5-carboxamide [Compound 53]
Antiviral Screening (10 μM) CPE reduction % [2]: 0% | Antiviral Screening (10 μM) viability % ([3]; 10 µM): 89% | IC50 [1, 5]: 7 ± 3.3 µM

O=C(NCc1ccccc1)c1c(Nc2ccccc2)[nH]c(=O)n(O)c1=O [Compound 24, N-Benzyl-1-(hydroxy)-1,2,3,6-tetrahydro-2,6-dioxo-4-(phenylamino)pyrimidine-5-carboxamide]
IC50 [1]: > 100 µM

O=C(NCc1ccccc1)c1c(Nc2ccc(-c3ccccc3)cc2)[nH]c(=O)n(O)c1=O [Compound 25, N-Benzyl-1-(hydroxy)-1,2,3,6-tetrahydro-2,6-dioxo-4-(biphenylamino)pyrimidine-5-carboxamide]
IC50 [1]: > 100 µM

CCNc1[nH]c(=O)n(O)c(=O)c1C(=O)NCc1ccc(F)c(F)c1 [Compound 42, N-(3,4-difluorobenzyl)-1-(hydroxy)-4-(ethylamino)-1,2,3,6-tetrahydro-2,6-dioxopyrimidine-5-carboxamide]
Antiviral Screening (10 μM) CPE reduction % [2]: inactive | Antiviral Screening (10 μM) viability % ([3]; 10 μM, CEM-SS cells, versus cell control): cytotoxic

CCNc1[nH]c(=O)n(O)c(=O)c1C(=O)NCc1ccc(Cl)c(F)c1 [Compound 44, N-(4-Chloro-3-fluorobenzyl)-1-(hydroxy)-4-(ethylamino)-1,2,3,6-tetrahydro-2,6-dioxopyrimidine-5-carboxamide]
TI (therapeutic index, CC50/EC50) ([2]; cytoprotection assay, CEM-SS cells): 100

CCNc1[nH]c(=O)n(O)c(=O)c1C(=O)NCCCl [Compound 50, 1-(Hydroxy)-N-(2-chloroethyl)-4-(ethylamino)-1,2,3,6-tetrahydro-2,6-dioxopyrimidine-5-carboxamide]
IC50 [1]: > 100 µM

CCNc1[nH]c(=O)n(O)c(=O)c1C(=O)Oc1ccccc1 [Compound 51, Phenyl-1-(hydroxy)-4-(ethylamino)-1,2,3,6-tetrahydro-2,6-dioxopyrimidine-5-carboxylate]
IC50 [1]: > 100 µM

CCNc1c(C(=O)NCc2ccc(F)cc2)c(=O)n(O)c(=O)n1C [Compound 52, N-(4-Fluorobenzyl)-3-(hydroxy)-6-(ethylamino)-1,2,3,4-tetrahydro-1-methyl-2,4-dioxopyrimidine-5-carboxamide]
IC50 [1]: > 100 µM

O=C(NCc1ccccc1)c1c(O)n(O)c(=O)[nH]c1=O [Compound 54, N-Benzyl-1,6-dihydroxy-2,4-dioxo-1,2,3,4-tetrahydropyrimidine-5-carboxamide]
inhibition at 10 µM ([2]; Human immunodeficiency virus 1, IIIB, CEM-SS, 144 h, read-out: Antiviral Screening (10 μM) CPE reduction %): 26% | viability at 6 days, 10 µM [4]: 100%
